target: T1, HGFR (Homo sapiens, UniProt P08581); assay: HGFR continuous-coupled spectrophotometric assay; type: biochemical; details: not given
T1 construct: purchased Upstate 14-526
T1 sequence (P08581 974-1390 limits assumed): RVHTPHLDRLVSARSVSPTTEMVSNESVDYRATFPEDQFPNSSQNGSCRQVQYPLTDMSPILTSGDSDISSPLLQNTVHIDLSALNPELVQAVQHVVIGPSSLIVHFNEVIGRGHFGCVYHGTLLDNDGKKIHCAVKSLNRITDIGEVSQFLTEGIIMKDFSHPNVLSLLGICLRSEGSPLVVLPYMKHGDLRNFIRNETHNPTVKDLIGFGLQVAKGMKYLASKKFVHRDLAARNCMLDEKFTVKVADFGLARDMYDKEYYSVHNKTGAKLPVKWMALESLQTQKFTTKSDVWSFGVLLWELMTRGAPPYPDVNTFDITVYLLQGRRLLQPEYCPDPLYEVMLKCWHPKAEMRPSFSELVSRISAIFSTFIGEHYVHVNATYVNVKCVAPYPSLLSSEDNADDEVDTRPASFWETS

SMILES | % inhibition | inhibition at 1 µM
CC(C)Cc1noc(COc2cc(-c3ccc(C(=O)N4CCC(N5CCCC5)CC4)cc3)cnc2N)n1 | % inhibition = 12 | 
Nc1ncc(-c2ccc(C(=O)N3CCC(N4CCCC4)CC3)cc2)cc1OCc1nc2cc(C(F)(F)F)ccc2s1 | % inhibition = 34 | 
CNC(=O)c1ccc(OC)c(-c2noc(OCc3cc(-c4ccc(C(=O)N5CCC(N6CCCC6)CC5)cc4)cnc3N)n2)c1 | % inhibition = 11 | 
Nc1ncc(-c2ccc(C(=O)N3CCC(N4CCCC4)CC3)cc2)cc1COc1ccc2ccccc2c1 | % inhibition = 27 | 
Cc1onc(-c2ccccc2)c1COc1cc(-c2ccc(C(=O)N3CCC(N4CCCC4)CC3)cc2)cnc1N | % inhibition = 19 | 
Nc1ncc(-c2ccc(C(=O)N3CCC(N4CCCC4)CC3)cc2)cc1OCc1ccccc1CS(=O)(=O)c1ccccc1 | % inhibition = 11 | 
COc1ccccc1-c1nc(COc2cc(-c3ccc(C(=O)N4CCC(N5CCCC5)CC4)cc3)cnc2N)no1 | % inhibition = 8 | 
Nc1ncc(-c2ccc(C(=O)N3CCC(N4CCCC4)CC3)cc2)cc1OCc1ccc(C(F)(F)F)nc1 | % inhibition = 13 | 
CC(=O)N(c1ccc(C)cc1)c1nc(COc2cc(-c3ccc(C(=O)N4CCC(N5CCCC5)CC4)cc3)cnc2N)cs1 | % inhibition = 9 | 
Nc1ncc(-c2ccc(C(=O)N3CCC(N4CCCC4)CC3)cc2)cc1OCc1ccccc1OC(F)F | % inhibition = 27 | 
Nc1ncc(-c2ccc(C(=O)N3CCC(N4CCCC4)CC3)cc2)cc1OCc1nc(NC2CC2)c2ccccc2n1 | % inhibition = 6 | 
Cc1oc(-c2ccccc2)nc1COc1cc(-c2ccc(C(=O)N3CCC(N4CCCC4)CC3)cc2)cnc1N | % inhibition = 19 | 
Nc1ncc(-c2ccc(C(=O)N3CCC(N4CCCC4)CC3)cc2)cc1OCc1cc(F)cc(C(F)(F)F)c1 | % inhibition = 12 | 
Nc1ncc(-c2ccc(C(=O)N3CCC(N4CCCC4)CC3)cc2)cc1OCc1ccc(C(=O)N2CCN(Cc3ccccc3)CC2)cc1 | % inhibition = 12 | 
N#Cc1ccc(COc2cc(-c3ccc(C(=O)N4CCC(N5CCCC5)CC4)cc3)cnc2N)cc1 | % inhibition = 8 | 
Nc1ncc(-c2ccc(C(=O)N3CCC(N4CCCC4)CC3)cc2)cc1OCc1cc(-c2c(Cl)cccc2Cl)no1 | % inhibition = 14 | 
Nc1ncc(-c2ccc(C(=O)N3CCC(N4CCCC4)CC3)cc2)cc1OCc1cc(C(F)(F)F)ccc1Cl | % inhibition = 26 | 
Nc1ncc(-c2ccc(C(=O)N3CCC(N4CCCC4)CC3)cc2)cc1OCc1cccc(C(=O)NCCc2ccccn2)c1 | % inhibition = 12 | 

SMILES | % inhibition | inhibition at 1 µM
Nc1ncc(C(=O)N2CCC(=O)CC2)cc1OCc1c(Cl)cccc1Cl |  | 44%
COc1ccc2sc(COc3cc(-c4ccc(C(=O)N5CCC(N6CCCC6)CC5)cc4)cnc3N)cc2c1 | % inhibition = 13 | 
CCOC(=O)CCNS(=O)(=O)c1ccc(COc2cc(-c3ccc(C(=O)N4CCC(N5CCCC5)CC4)cc3)cnc2N)cc1 | % inhibition = 15 | 
Nc1ncc(-c2ccc(C(=O)N3CCC(N4CCCC4)CC3)cc2)cc1OCc1ccc(C(=O)c2ccccc2)cc1 | % inhibition = 31 | 
Nc1ncc(-c2ccc(C(=O)N3CCC(N4CCCC4)CC3)cc2)cc1OCc1ccc(-c2cnc(Br)nc2)cc1 | % inhibition = 33 | 
Nc1ncc(-c2ccc(C(=O)N3CCC(N4CCCC4)CC3)cc2)cc1OCc1cscn1 | % inhibition = 12 | 
Nc1ncc(-c2ccc(C(=O)N3CCC(N4CCCC4)CC3)cc2)cc1OCc1nnn[nH]1 | % inhibition = 14 | 
COc1cc(COc2cc(-c3ccc(C(=O)N4CCC(N5CCCC5)CC4)cc3)cnc2N)cc(OC)c1OC | % inhibition = 10 | 
N#Cc1ccccc1-c1ccc(COc2cc(-c3ccc(C(=O)N4CCC(N5CCCC5)CC4)cc3)cnc2N)cc1 | % inhibition = 77 | 
Nc1ncc(-c2ccc(C(=O)N3CCC(N4CCCC4)CC3)cc2)cc1OCc1cccc(Cl)c1F | % inhibition = 28 | 
Cc1cc(C)n2nc(COc3cc(-c4ccc(C(=O)N5CCC(N6CCCC6)CC5)cc4)cnc3N)nc2n1 | % inhibition = 18 | 
Nc1ncc(-c2ccc(C(=O)N3CCC(N4CCCC4)CC3)cc2)cc1OCc1cccc(Oc2ccccc2)c1 | % inhibition = 34 | 
Nc1ncc(-c2ccc(C(=O)N3CCC(N4CCCC4)CC3)cc2)cc1OCc1ccc(Cl)c(Cl)c1 | % inhibition = 26 | 
CC(Oc1cc(-c2ccc(C(=O)N3CCC(N4CCCC4)CC3)cc2)cnc1N)c1ccccc1C(F)(F)F (stereo not shown) | % inhibition = 21 | 
Nc1ncc(-c2ccc(C(=O)N3CCC(N4CCCC4)CC3)cc2)cc1OCc1c(F)cccc1C(F)(F)F | % inhibition = 31 | 
Nc1ncc(-c2ccc(C(=O)N3CCC(N4CCCC4)CC3)cc2)cc1OCc1ccc(C(=O)NCCCN2CCCC2=O)cc1 | % inhibition = 11 | 
Cc1noc(COc2cc(-c3ccc(C(=O)N4CCC(N5CCCC5)CC4)cc3)cnc2N)n1 | % inhibition = 11 | 

same assay, conditions: Table 3; Ki(μM) or I(%); test concentration not given

SMILES | I(%)
CC(Oc1cc(-c2ccccc2OC(F)(F)F)cnc1N)c1c(Cl)ccc(F)c1Cl (stereo not shown) [Example I-561, 3-[1-(2,6-Didiloro-3-fluoro-phenyl)-ethoxy]-5-(2-trifluoromethoxy-phenyl)-pyridin-2-ylamine] | 14%
Cc1cccc(C)c1-c1cnc(N)c(OC(C)c2c(Cl)ccc(F)c2Cl)c1 (stereo not shown) [Example I-567, 3-[1-(2,6-Dichloro-fluoro-pheny)-ethoxy]-5-(2,6-dimethylphenyl)-pyridin-2-ylamine] | 0%
CC(Oc1cc(-c2ccccc2Cl)cnc1N)c1c(Cl)ccc(F)c1Cl (stereo not shown) [Example I-560, 5-(2-Chloro-phenyl)-3-[1-(2,6-dichloro-3-fluoro-phenyl)-ethoxy]-pyridin-2-ylamine] | 24%
CC(Oc1cc(-c2ccc(C(=O)N3C[C@@H](C)N[C@@H](C)C3)cc2)cnc1N)c1ccccc1C(F)(F)F (stereo partly shown) [Example I-616] | 3%
CC(Oc1cc(-c2ccc(C(=O)N3C[C@@H](C)N[C@@H](C)C3)cc2)cnc1N)c1cccc(C(F)(F)F)c1 (stereo partly shown) [Example I-617, (4-{6-Amino-5-[1-(3-trifluoromethyl-phenyl)-ethoxy]-pyridin-3-yl]-phenyl)-(3,5-dimethyl-piperazin-1-yl)-methanone] | 2%
Cc1ccccc1COc1cc(-c2ccc(C(=O)N3CCC(N4CCCC4)CC3)cc2)cnc1N [Example I-627, {4-[6-Amino-5-(2-methyl-benzxloxy)-pyridin-3-yl]-phenyl}-(4-pyrrolidin-1-yl-piperidin-1-yl)-methanone] | 6%
Nc1ncc(-c2ccc(C(=O)N3CCC(N4CCCC4)CC3)cc2)cc1OCc1ccccc1 [Example I-649, [4-(6-Amino-5-benzyloxy-pyridin-3-yl)-phenyl]-(4-pyrrolidin-1-yl-piperidin-1-yl)-methanone] | 29%

same assay, conditions: Table 5; percent c-MET inhibition at 50 nM

SMILES | inhibition at 0.05 µM
CC(Oc1cc(-c2ccc(C(=O)NCC(c3ccc[nH]3)C(F)(F)F)cc2)cnc1N)c1c(Cl)ccc(F)c1Cl (stereo not shown) | 70%
CC(Oc1cc(-c2ccc(C(=O)NC[C@H]3CCCO3)cc2)cnc1N)c1c(Cl)ccc(F)c1Cl (stereo partly shown) | 60%
CC(Oc1cc(-c2ccc(C(=O)N[C@H]3CC[C@H](CO)CC3)cc2)cnc1N)c1c(Cl)ccc(F)c1Cl (stereo partly shown) | 68%
CCC1CCCCN1C(=O)c1ccc(-c2cnc(N)c(OC(C)c3c(Cl)ccc(F)c3Cl)c2)cc1 (stereo not shown) | 56%

same assay, conditions: Table 6; percent c-MET inhibition at 1 μM; read-out: % inhibition

SMILES | inhibition at 1 µM
Nc1ncc(C(=O)N2CCN(CC(=O)Nc3ccccn3)CC2)cc1OCc1c(Cl)cccc1Cl | 56%
CCN(CC)C(=O)C1CCCN(C(=O)c2cnc(N)c(OCc3c(Cl)cccc3Cl)c2)C1 (stereo not shown) | 33%
Nc1ncc(C(=O)N[C@@H]2c3ccccc3C[C@@H]2O)cc1OCc1c(Cl)cccc1Cl | 23%
CN(CCC1CCC(=O)N1CC(F)(F)F)C(=O)c1cnc(N)c(OCc2c(Cl)cccc2Cl)c1 (stereo not shown) | 25%
Nc1ncc(C(=O)N2CCC3(CC2)CC(N2CCNC(=O)C2)CO3)cc1OCc1c(Cl)cccc1Cl (stereo not shown) | 17%
Nc1ncc(C(=O)N2CCCC(C(=O)N3CCOCC3)C2)cc1OCc1c(Cl)cccc1Cl (stereo not shown) | 21%
CC(C)CCNC(=O)C1CC12CCN(C(=O)c1cnc(N)c(OCc3c(Cl)cccc3Cl)c1)CC2 (stereo not shown) | 21%
Nc1ncc(C(=O)NCCCN2CCOCC2)cc1OCc1c(Cl)cccc1Cl | 26%
Nc1ncc(C(=O)NC[C@]2(O)CC[C@H](c3ccccc3)CC2)cc1OCc1c(Cl)cccc1Cl | 15%
C[C@@H]1CCC[C@H](C)N1CCNC(=O)c1cnc(N)c(OCc2c(Cl)cccc2Cl)c1 | 2%
Nc1ncc(C(=O)NC2COC3(CCN(c4ncccn4)CC3)C2)cc1OCc1c(Cl)cccc1Cl (stereo not shown) | 21%
Nc1ncc(C(=O)NC[C@H]2CCCC[C@H]2O)cc1OCc1c(Cl)cccc1Cl | 24%
Nc1ncc(C(=O)N2CCc3nnc(CCN4CCOCC4)n3CC2)cc1OCc1c(Cl)cccc1Cl | 27%
Nc1ncc(C(=O)NCCc2c[nH]c3ccc(Cl)cc23)cc1OCc1c(Cl)cccc1Cl | 36%
Nc1ncc(C(=O)N2CCN(CCOCCO)CC2)cc1OCc1c(Cl)cccc1Cl | 33%
Nc1ncc(C(=O)NCCc2ccncc2)cc1OCc1c(Cl)cccc1Cl | 30%
Nc1ncc(C(=O)N2CCC(O)(Cc3ccccc3)CC2)cc1OCc1c(Cl)cccc1Cl | 62%
Nc1ncc(C(=O)NCCCN2CCCC2=O)cc1OCc1c(Cl)cccc1Cl | 34%
CCN1CCCC(NC(=O)c2cnc(N)c(OCc3c(Cl)cccc3Cl)c2)C1 (stereo not shown) | 19%
Nc1ncc(C(=O)NCc2cccc(OC(F)F)c2)cc1OCc1c(Cl)cccc1Cl | 32%
Nc1ncc(C(=O)NCc2c(F)cccc2F)cc1OCc1c(Cl)cccc1Cl | 32%
Nc1ncc(C(=O)N2CCC(Cc3cccc(CO)c3)CC2)cc1OCc1c(Cl)cccc1Cl | 11%
CN1CCC(N(C)C(=O)c2cnc(N)c(OCc3c(Cl)cccc3Cl)c2)C1 (stereo not shown) | 33%
NC(=O)CCNC(=O)c1cnc(N)c(OCc2c(Cl)cccc2Cl)c1 | 28%
Nc1ncc(C(=O)N2CCC(CO)CC2)cc1OCc1c(Cl)cccc1Cl | 43%
Nc1ncc(C(=O)N2CCCCC2CCO)cc1OCc1c(Cl)cccc1Cl (stereo not shown) | 33%
CN(C)C1CCN(C(=O)c2cnc(N)c(OCc3c(Cl)cccc3Cl)c2)C1 (stereo not shown) | 33%
